Assay results reported in US20090068143A1, “ORALLY EFFECTIVE C[…]” (priority 2005, published 2009).

How the values were obtained:
[1] = system: PLP induced remitting-relapsing EAE; assay: PLP induced remitting-relapsing EAE
MCP-1 = assay: Real-time RT-PCR gene expression in CNS of MOG induced EAE: MCP-1; type: in vivo, mouse; details: 40 mg/kg p.o., day 31, over naive animals
Method: (§1) Total RNA is prepared using SV total RNA isolation system (Promega). The brains and spinal cords, which were removed on day 31 from five animals treated with vehicle (i.e. untreated) or 40 mg/kg p.o. of compound 18F (i.e. treated) in the MOG-induced EAE study, were homogenized in lysis buffer. The lysates were transferred to an RNA isolation column, treated with DNAse, washed and eluted according to kit instructions. RNA concentrations were determined using GeneQuant II (Pharmacia-Amersham). Complementary DNA (cDNA) was synthesized from total RNA using […] II reverse transcriptase (Life Technologies). […] Quantitative real-time RT-PCR included 1 μl of the cDNA, 300 nM of the appropriate forward and reverse primers (according to the gene monitored) and 7.5 μl of the reaction mix containing buffer, nucleotides, Taq polymerase and SYBER green (SYBER Green master mix, Applied Biosystems), in a total reaction volume of 15 μl. […] During each annealing step, the amount of the amplified product was measured by the fluorescence of the double strand DNA binding dye, SYBER Green. The cycle of threshold (CT), representing the PCR cycle at which an increase in fluorescence above a baseline signal can be first detected, was determined for each product. […] Results were expressed as fold increase of gene expression in treated or untreated animals above the naive animals. […]

ICR male mice = assay: Tetrad Assay (safety)
TNF-α = assay: Real-time RT-PCR gene expression in CNS of MOG induced EAE: TNF-α; type: in vivo, mouse; details: 40 mg/kg p.o., day 31; over naive animals
Method: as §1

CB1 receptor = CB1 receptor (Homo sapiens, UniProt P21554); assay: CB1 binding assay
CB1 receptor, sequence (P21554 whole entry): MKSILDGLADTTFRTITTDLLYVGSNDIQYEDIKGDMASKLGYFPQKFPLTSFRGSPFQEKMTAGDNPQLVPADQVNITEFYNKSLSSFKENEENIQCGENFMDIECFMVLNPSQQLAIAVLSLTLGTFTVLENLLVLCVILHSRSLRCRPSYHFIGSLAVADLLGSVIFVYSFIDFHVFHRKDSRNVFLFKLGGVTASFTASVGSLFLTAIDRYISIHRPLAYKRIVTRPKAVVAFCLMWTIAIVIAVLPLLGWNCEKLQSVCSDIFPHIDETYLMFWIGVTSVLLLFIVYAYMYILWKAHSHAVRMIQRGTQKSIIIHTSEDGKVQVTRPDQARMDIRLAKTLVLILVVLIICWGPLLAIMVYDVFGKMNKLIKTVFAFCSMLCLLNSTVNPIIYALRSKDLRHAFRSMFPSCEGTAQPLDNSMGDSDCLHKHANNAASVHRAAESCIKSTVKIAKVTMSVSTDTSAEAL

[2] = system: chronic constriction induced neuropathic pain; assay: Chronic constriction induced neuropathic pain (Von Frey filaments); type: in vivo, Sprague-Dawley rats
Text: A peripheral monopathy was induced in the right hind limb of rats following a chronic constriction of the sciatic nerve according to Bennet et al. [Bennet, G. J. & Xie, Y-K., Pain 33: 87-107, 1988]. The development of mechanical allodyna was monitored using an established behavioral test (Von Frey filaments).
Pre-surgery baseline values were ascertained as the mean of 2 pre-surgery values. Once the baseline values had been established, the animals were surgically prepared by constricting the right sciatic nerve with 4 chromic cat gut loose ligatures. On day 11 post-operation, the animals that have developed mechanical allodyna were arbitrarily allocated to the various treatment groups based on the pre-surgery values.
The design was randomized, performed in a masked fashion as to whether drug or vehicle is being given. The animals, male Sprague-Dawley rats (average body weight 240-290 g, Harlan, Israel), were allowed to acclimatize to the behavioral testing equipment prior to testing. […] The filaments were applied in ascending order starting with the weakest force and the withdrawal threshold for both the ipsilateral and contralateral hind paws was evaluated. […] The withdrawal threshold is defined as being the lowest force of two or more consecutive Von Frey's filaments to elicit a reflex withdrawal response (i.e. a brief paw flick) and is measured in grams.

CCCCCCC(C)(C)c1cc(O)c([C@H]2CC(=O)C3CC2C3(C)C)c(OC(=O)/C=C/C(=O)O)c1 (single isomer, unassigned; (-)) [Compound 18F, (−)-4-{4-[1,1-Dimethylheptyl]-2-fumarate-6-hydroxy-phenyl}-6,6-dimethyl-bicyclo[3.1.1]heptan-2-one]
relapse postponed as compared to controls ([1]; 40 mg/kg p.o. daily for 25 days): 5 to 7 days | clinical score of the second peak ([1]; 40 mg/kg p.o. daily for 25 days from day 25, controls 0.7 and 0.8): 0.5 | side effects ([1]; 40 mg/kg p.o. for 25 days): No side effects were observed | AUC of clinical score ([1]; 40 mg/kg p.o., day 35 to day 58, control 8.1): 2.1 | reduction in AUC as compared to control ([1]; 40 mg/kg p.o., day 35 to day 58, p=0.0025): 74% | average reduction of clinical score ([1]; 40 mg/kg p.o., day 38 till end of study): 28% | Fold gene expression MCP-1, Brain, Treated (MCP-1): 5.5 fold | Fold gene expression MCP-1, Spinal Cord, Treated (MCP-1; untreated 19): 68 fold | body temperature (ICR male mice; 30, 60, 80 and 100 mg/kg p.o.): transient hypothermia | time to regain normothermia (ICR male mice; 30 and 60 mg/kg p.o.): ≤ 24 h | body temperature below baseline at the end of follow-up period (ICR male mice; 80 and 100 mg/kg p.o.): 2 °C | safety at therapeutically effective doses (ICR male mice; doses of up to 60 mg/kg p.o.): found to be safe | catalepsy and spontaneous or forced locomotor activity (ICR male mice; p.o., up to maximal dose tested of 100 mg/kg): no effect | Fold gene expression TNF-α, Brain, Treated (TNF-α): 2.5 fold | Fold gene expression TNF-α, Spinal Cord, Treated (TNF-α): 15 fold | IC50 (CB1 receptor): 334 nM | effect on neuropathic pain ([2]; 20 mg/kg p.o.): little effect | effect on neuropathic pain ([2]; 40 mg/kg p.o.): as strong as 5 mg/kg morphine administered subcutaneously
